Experimental data reported in US9833497B2, “Human originated EGF domain proteins and use of the same” (CHENGDU SOURCEBIO LIMITED-LIABILITY COMPANY, priority 2013, dated 2017).

How the values were obtained:
Format in all cases: cell-based
[1] = tested on: Moraxella catarrhalis; experiment: MIC against Gram-negative bacteria: Moraxella catarrhalis; settings: for MIC (μg/mL) M. catarrhalis / MIC: M. catarrhalis
Outline: (§1)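 LB broth cultures at McFarland 0.5, spun down, resuspended, diluted to 5×10^5 CFU/mL final. Two-fold serial dilutions of purified human EGF domain proteins, triplicate. 37° C, 175 rpm shaking. Endpoint: no visible growth.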

[2] = tested on: Citrobacter diversus; experiment: MIC against Gram-negative bacteria: Citrobacter diversus; settings: for MIC (μg/mL) C. diversus / MIC: C. diversus
Outline: as §1

[3] = tested on: Proteus vulgaris; experiment: MIC against Gram-negative bacteria: Proteus vulgaris; settings: for MIC (μg/mL) P. vulgaris / MIC: P. vulgaris
Outline: as §1

[4] = tested on: Enterobacter cloacae; experiment: MIC against Gram-negative bacteria: Enterobacter cloacae; settings: for MIC (μg/mL) E. cloacae / MIC: E. cloacae
Outline: as §1

[5] = tested on: Proteus mirabilis; experiment: MIC against Gram-negative bacteria: Proteus mirabilis; settings: for MIC (μg/mL) P. mirabilis / MIC: P. mirabilis
Outline: as §1

[6] = tested on: E. coli DH5α; experiment: Antibacterial activity: MIC and growth curve against E. coli DH5α in 96-well plate; settings: minimal inhibitory concentration against E. coli DH5α; 96-well plate, 5×10^5 CFU/mL, 37° C., judged after 8 h
Outline: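 Log-phase DH5α (OD600 about 0.5, 37° C, 185 rpm in LB) was pelleted, resuspended in fresh LB and seeded at 5×10^5 CFU/mL with recombinant protein at 50, 25 and 12.5 μg/mL (two-fold series), in triplicate. Plates were shaken at 175 rpm, 37° C, and OD600 was read every 30 min. MIC was the lowest concentration with no growth.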

[7] = tested on: Klebsiella pneumonia; experiment: MIC against Gram-negative bacteria: Klebsiella pneumonia; settings: for MIC (μg/mL) K. pneumonia / MIC: K. pneumonia
Outline: as §1

[8] = tested on: E. coli BL21; experiment: MIC against Gram-negative bacteria: E. coli BL21
Outline: as §1

[9] = tested on: Aeromonas hydrophila; experiment: MIC against Gram-negative bacteria: Aeromonas hydrophila; settings: for MIC (μg/mL) A. hydrophila / MIC: A. hydrophila
Outline: as §1

[10] = tested on: Serratia marcescens; experiment: MIC against Gram-negative bacteria: Serratia marcescens; settings: for MIC (μg/mL) S. marcescens / MIC: S. marcescens
Outline: as §1

[11] = tested on: Pseudomonas aeruginosa; experiment: MIC against Gram-negative bacteria: Pseudomonas aeruginosa; settings: for MIC (μg/mL) P. aeruginosa / MIC: P. aeruginosa
Outline: as §1

[12] = 96-well plate, 5×10^5 CFU/mL, 37° C., 10 h
[13] = 10 h cultivation at 37° C., 5×10^5 CFU/mL
[14] = E. coli BL21, 10 h cultivation at 37° C., 5×10^5 CFU/mL
[15] = Moraxella catarrhalis, 96-well plate, 5×10^5 CFU/mL, 37° C., 10 h
[16] = Citrobacter diversus, 96-well plate, 5×10^5 CFU/mL, 37° C., 10 h
[17] = Proteus vulgaris, 96-well plate, 5×10^5 CFU/mL, 37° C., 10 h
[18] = Enterobacter cloacae, 96-well plate, 5×10^5 CFU/mL, 37° C., 10 h
[19] = Proteus mirabilis, 96-well plate, 5×10^5 CFU/mL, 37° C., 10 h
[20] = Klebsiella pneumonia, 96-well plate, 5×10^5 CFU/mL, 37° C., 10 h
[21] = E. coli BL21, 96-well plate, 5×10^5 CFU/mL, 37° C., 10 h
[22] = Aeromonas hydrophila, 96-well plate, 5×10^5 CFU/mL, 37° C., 10 h
[23] = Serratia marcescens, 96-well plate, 5×10^5 CFU/mL, 37° C., 10 h
[24] = Pseudomonas aeruginosa, 96-well plate, 5×10^5 CFU/mL, 37° C., 10 h
[25] = 10 h cultivation at 37° C., 5×10^5 CFU/mL, two-fold serial dilution
[26] = E. coli BL21, 10 h cultivation at 37° C.

PRT613 (CQCSDNIDPNAVGNCNRLTGECLKCIYNTAGFYCDRCKDGFFGNPLAPNPADKCKA; listed as Homo sapiens)
12.5 µg/mL: MIC P. vulgaris [3, 12] | MIC E. coli BL21 [8, 12] | MIC A. hydrophila [9, 12]
50 µg/mL: MIC M. catarrhalis [1, 12] | MIC [6] | MIC K. pneumonia [7, 12] | MIC S. marcescens [10, 12]
25 µg/mL: MIC C. diversus [2, 12] | MIC E. cloacae [4, 12] | MIC P. mirabilis [5, 12] | MIC P. aeruginosa [11, 12]

PRT773 (PSNPCQDDPCADNSLCVKLHNTSFCLCLEGYYYNSSTCK; listed as Homo sapiens)
12.5 µg/mL: MIC (μg/mL) C. diversus [2, 13] | MIC (μg/mL) E. cloacae [4, 13] | MIC (μg/mL) P. mirabilis [5, 13] | MIC (μg/mL) S. marcescens [10, 13] | MIC (μg/mL) P. aeruginosa [11, 13]
50 µg/mL: MIC (μg/mL) M. catarrhalis [1, 13] | MIC (μg/mL) P. vulgaris [3, 13] | MIC [6] | MIC (μg/mL) K. pneumonia [7, 13] | MIC (μg/mL) A. hydrophila [9, 13]
25 µg/mL: MIC (μg/mL) E. coli BL21 [8, 14]

PRT1282 (SLDSCSSGPCENGGTCHAQEGEDAPFTCSCPTGFEGPTCG; listed as Homo sapiens)
25 µg/mL: MIC against M. catarrhalis [1, 15] | MIC against P. vulgaris [3, 17] | MIC against E. cloacae [4, 18]
12.5 µg/mL: MIC against P. mirabilis [5, 19] | MIC [6] | MIC against A. hydrophila [9, 22] | MIC against P. aeruginosa [11, 24]
50 µg/mL: MIC against C. diversus [2, 16] | MIC against K. pneumonia [7, 20] | MIC against E. coli BL21 [8, 21] | MIC against S. marcescens [10, 23]

PRT1186 (KNSSCLPNPCVNGGTCVGSGASFSCICRDGWEGRTCT; listed as Homo sapiens)
12.5 µg/mL: MIC P. mirabilis [5, 25] | MIC A. hydrophila [9, 25] | MIC S. marcescens [10, 25] | MIC P. aeruginosa [11, 25]
25 µg/mL: MIC C. diversus [2, 25] | MIC K. pneumonia [7, 25] | MIC E. coli BL21 [8, 25]
50 µg/mL: MIC M. catarrhalis [1, 25] | MIC P. vulgaris [3, 25] | MIC E. cloacae [4, 25] | MIC [6]

PRT1126 (DVRACSSAPCANNRTCVSLDDGLYECSCAPGYSGKDCQ; listed as Homo sapiens)
50 µg/mL: MIC C. diversus [2, 25] | MIC P. mirabilis [5, 25] | MIC E. coli BL21 [8, 25] | MIC S. marcescens [10, 25]
12.5 µg/mL: MIC M. catarrhalis [1, 25] | MIC P. vulgaris [3, 25] | MIC K. pneumonia [7, 25]
25 µg/mL: MIC E. cloacae [4, 25] | MIC [6] | MIC A. hydrophila [9, 25] | MIC P. aeruginosa [11, 25]

PRT1226 (YTASCQDMSCSKQGECLETIGNYTCSCYPGFYGPECE; listed as Homo sapiens)
12.5 µg/mL: MIC against M. catarrhalis [1, 15] | MIC against P. vulgaris [3, 17] | MIC against K. pneumonia [7, 20]
25 µg/mL: MIC against E. cloacae [4, 18] | MIC [6] | MIC against A. hydrophila [9, 22] | MIC against S. marcescens [10, 23] | MIC against P. aeruginosa [11, 24]
50 µg/mL: MIC against C. diversus [2, 16] | MIC against P. mirabilis [5, 19] | MIC against E. coli BL21 [8, 21]

PRT1328 (LINVCLTKNGGCSEFAICNHTGQVERTCTCKPNYIGDGFT; listed as Homo sapiens)
50 µg/mL: MIC against E. cloacae [4, 18] | MIC against P. mirabilis [5, 19] | MIC against S. marcescens [10, 23] | MIC against P. aeruginosa [11, 24]
12.5 µg/mL: MIC against C. diversus [2, 16] | MIC against P. vulgaris [3, 17] | MIC [6] | MIC against K. pneumonia [7, 20] | MIC against E. coli BL21 [8, 21]
25 µg/mL: MIC against M. catarrhalis [1, 15] | MIC against A. hydrophila [9, 22]

PRT419 (DIDECALPTGGHICSYRCINIPGSFQCSCPSSGYRLAPNGRNCQ; listed as Homo sapiens)
50 µg/mL: MIC [1, 13] | MIC [7, 13]
25 µg/mL: MIC [2, 13] | MIC [4, 13] | MIC [5, 13] | MIC [6] | MIC [10, 13] | MIC [11, 13]
12.5 µg/mL: MIC [3, 13] | MIC [8, 14] | MIC [9, 13]

PRT928 (NIDNCDPDPCHHGQCQDGIDSYTCICNPGYMGAICS; listed as Homo sapiens)
25 µg/mL: MIC ([2]; 10 h cultivation at 37° C.) | MIC ([3]; 10 h cultivation at 37° C.) | MIC ([4]; 10 h cultivation at 37° C.) | MIC [6] | MIC ([10]; 10 h cultivation at 37° C.) | MIC ([11]; 10 h cultivation at 37° C.)
12.5 µg/mL: MIC ([1]; 10 h cultivation at 37° C.) | MIC ([5]; 10 h cultivation at 37° C.) | MIC ([7]; 10 h cultivation at 37° C.) | MIC [8, 26] | MIC ([9]; 10 h cultivation at 37° C.)

PRT1383 (GTRSCPWDCGEGGRCVDGRCVCWPGYTGEDC; listed as Homo sapiens)
25 µg/mL: MIC against C. diversus ([2]; Citrobacter diversus, 5×10^5 CFU/mL, 10 h cultivation at 37° C.) | MIC against K. pneumonia ([7]; Klebsiella pneumonia, 5×10^5 CFU/mL, 10 h cultivation at 37° C.)
12.5 µg/mL: MIC against M. catarrhalis ([1]; Moraxella catarrhalis, 5×10^5 CFU/mL, 10 h cultivation at 37° C.) | MIC against P. vulgaris ([3]; Proteus vulgaris, 5×10^5 CFU/mL, 10 h cultivation at 37° C.) | MIC against E. cloacae ([4]; Enterobacter cloacae, 5×10^5 CFU/mL, 10 h cultivation at 37° C.) | MIC [6] | MIC against E. coli BL21 ([8]; E. coli BL21, 5×10^5 CFU/mL, 10 h cultivation at 37° C.) | MIC against P. aeruginosa ([11]; Pseudomonas aeruginosa, 5×10^5 CFU/mL, 10 h cultivation at 37° C.)
50 µg/mL: MIC against P. mirabilis ([5]; Proteus mirabilis, 5×10^5 CFU/mL, 10 h cultivation at 37° C.) | MIC against A. hydrophila ([9]; Aeromonas hydrophila, 5×10^5 CFU/mL, 10 h cultivation at 37° C.) | MIC against S. marcescens ([10]; Serratia marcescens, 5×10^5 CFU/mL, 10 h cultivation at 37° C.)

PRT929 (QIDECYSSPCLNDGRCIDLVNGYQCNCQPGTSGVNCE; listed as Homo sapiens)
100 µg/mL: MIC [6]
25 µg/mL: MIC ([7]; 10 h cultivation at 37° C.) | MIC [8, 26] | MIC ([9]; 10 h cultivation at 37° C.)
12.5 µg/mL: MIC ([2]; 10 h cultivation at 37° C.) | MIC ([5]; 10 h cultivation at 37° C.) | MIC ([10]; 10 h cultivation at 37° C.) | MIC ([11]; 10 h cultivation at 37° C.)
50 µg/mL: MIC ([1]; 10 h cultivation at 37° C.) | MIC ([3]; 10 h cultivation at 37° C.) | MIC ([4]; 10 h cultivation at 37° C.)

PRT485 (QADPCKFLACGEFAQCVKNERTEEAECRCKPGYDSQGSL; listed as Homo sapiens)
50 µg/mL: MIC against C. diversus [2, 12] | MIC [6] | MIC against S. marcescens [10, 12] | MIC against P. aeruginosa [11, 12]
25 µg/mL: MIC against M. catarrhalis [1, 12] | MIC against P. vulgaris [3, 12] | MIC against K. pneumonia [7, 12] | MIC against A. hydrophila [9, 12]
12.5 µg/mL: MIC against E. cloacae [4, 12] | MIC against P. mirabilis [5, 12] | MIC against E. coli BL21 [8, 12]

PRT246 (DINECTMDSHTCSHHANCFNTQGSFKCKCKQGYKGNGLRCS; listed as Homo sapiens)
25 µg/mL: MIC (μg/mL) M. catarrhalis [1, 13] | MIC (μg/mL) P. vulgaris [3, 13]
12.5 µg/mL: MIC (μg/mL) C. diversus [2, 13] | MIC (μg/mL) E. cloacae [4, 13] | MIC (μg/mL) P. mirabilis [5, 13] | MIC [6] | MIC (μg/mL) K. pneumonia [7, 13] | MIC (μg/mL) E. coli BL21 [8, 14] | MIC (μg/mL) A. hydrophila [9, 13] | MIC (μg/mL) S. marcescens [10, 13] | MIC (μg/mL) P. aeruginosa [11, 13]
